pIC50: −log10 of the molar value. Several values for one entry are separate records, joined by “and”; a condition that tells them apart may be missing. Identical values can stand only once.
Tested on: LG0703-F498-PDC complex spheroid growth
Experiment: Anticancer human tumor LG0703-F498-PDC patient-derived lung adenocarcinoma cell line growth inhibition [AhR]
Details: for viability, T/C: stronger effect = lower value
Excerpt: Multicellular complex tumor spheroid response to aryl hydrocarbon receptor antagonists in combination with a variety of drugs and investigational agents in selected tumor cell lines
The current study was undertaken to assess response to aryl hydrocarbon receptor antagonists in combination with standard-of-care drugs and investigational agents in solid tumor complex spheroid models. Complex spheroids include a stromal component modeled by human endothelial cells (HUVEC) and fibroblasts modeled by human mesenchymal stem cells (MSCs). The concentration ranges selected for each drug and investigational agent were based upon clinically achievable concentrations if the clinical Cmax of the agent was known.
Compounds. The drugs and investigational agents: BAY 2416964 (NSC825713), GNF351 (NSC835774), CH-223191 (NSC835775), CPI-455 (NSC825282), aza-TdCyd (NSC777586), decitabine (NSC127716), belinostat (NSC758774), entinostat (NSC756642), pevonedistat (NSC761192), tazemetostat (NSC777109), talazoparib (NSC765396), olaparib (NSC753686), selinexor (NSC780203), nedisertib (M3814, NSC802822), bortezomib (NSC756655), venetoclax (NSC766270), doxorubicin (NSC123127), elimusertib (BAY189344, NSC800525), ceralasertib (AZD6738, NSC777638), TAK-243 (NSC785004), alisertib (NSC759677), etoposide (NSC141540), topotecan (NSC609699), eribulin (NSC707389), gemcitabine (NSC613327), carboplatin (NSC241240), cisplatin (NSC119875), and SN-38 (NSC673596) were obtained from the National Cancer Institute (NCI) Developmental Therapeutics Program Chemical Repository (32). The FDA-approved anticancer drug set is available from the Developmental Therapeutics Program at https://dtp.cancer.gov/organization/dscb/obtaining/available plates.htm. […] The stock solutions were prepared in dimethyl sulfoxide (DMSO, Sigma-Aldrich, St. Louis, MO, cat. D2650), except for the platinum compounds which were prepared in saline (Quality Biological, Gaithersburg, MD, cat. 114-055-101), at 800-fold the tested concentration and stored at -70 degrees C prior to their use. All drugs and investigational agents were tested over a range starting from a high concentration at or near the clinical Cmax and decreasing in half-log increments. If the clinical Cmax for an agent had not been determined, the highest concentration tested was 10 microM (Table 1).
Cell Culture. All cells were maintained in an incubator at 37 degrees C and 5% CO2 with 95% humidity. The PDC lines were cultured according to standard operating procedures established by the NCI PDMR (https://pdmr.cancer.gov). Briefly, all PDCs were thawed and cultured in Matrigel-coated flasks prepared with a working solution of 1X Ham's F-12 nutrient mix, without supplementation (Invitrogen, Waltham, MA, cat. 11765054), 100 U/mL penicillin-streptomycin (Invitrogen, cat. 15140122), and 2.5% Matrigel (Corning Inc., Corning, NY, cat. 354248) for the first three passages. All PDCs were cultured in complete DMEM/F-12 media containing advanced DMEM/F-12 (Invitrogen, cat. 12634028), 4.9% defined fetal bovine serum, heat inactivated (HyClone Laboratories Inc., Logan, UT, cat. SH30070.03HI), 389 ng/mL hydrocortisone (Sigma-Aldrich, cat. H4001), 9.7 ng/mL human EGF recombinant protein (Invitrogen, cat. PHG0313), 23.4 microg/mL adenine (Sigma-Aldrich, cat. A2786), 97.3 U/mL penicillin-streptomycin (Invitrogen, cat. 15140122), 1.9 mM L-glutamine (Invitrogen, cat. 25030081), and 9.7 microM Y-27632 dihydrochloride (Tocris Bioscience, Bristol, United Kingdom, cat. 1254). The PDCs were cultured in complete DMEM/F12 media without 10 microM Y-27632 dihydrochloride for at least two passages prior to the screen. The established cell lines NCI-H1341 and […] were cultured in DMEM/F-12, HEPES (Invitrogen, cat. 11330032), 5% defined fetal bovine serum (HyClone Laboratories Inc., cat. SH30070.03), ITS premix universal culture supplement [insulin (5 microg/mL), transferrin (5 microg/mL), and selenious acid (5 ng/mL)] […]

[1] = curve of first compound, second compound 0.1 µM
[2] = curve of first compound, second compound 0.316 µM
[3] = curve of first compound, second compound 1 µM
[4] = curve of first compound, second compound 3.16 µM
[5] = curve of first compound, second compound 10 µM
[6] = second compound 0.1 µM, first compound 0.00316 µM
[7] = second compound 0.1 µM, first compound 0.01 µM
[8] = second compound 0.1 µM, first compound 0.0316 µM
[9] = second compound 0.1 µM, first compound 0.1 µM
[10] = second compound 0.1 µM, first compound 0.316 µM
[11] = second compound 0.1 µM, first compound 1 µM
[12] = second compound 0.316 µM, first compound 0.00316 µM
[13] = second compound 0.316 µM, first compound 0.01 µM
[14] = second compound 0.316 µM, first compound 0.0316 µM
[15] = second compound 0.316 µM, first compound 0.1 µM
[16] = second compound 0.316 µM, first compound 0.316 µM
[17] = second compound 0.316 µM, first compound 1 µM
[18] = second compound 1 µM, first compound 0.00316 µM
[19] = second compound 1 µM, first compound 0.01 µM
[20] = second compound 1 µM, first compound 0.0316 µM
[21] = second compound 1 µM, first compound 0.1 µM
[22] = second compound 1 µM, first compound 0.316 µM
[23] = second compound 1 µM, first compound 1 µM
[24] = second compound 3.16 µM, first compound 0.00316 µM
[25] = second compound 3.16 µM, first compound 0.01 µM
[26] = second compound 3.16 µM, first compound 0.0316 µM
[27] = second compound 3.16 µM, first compound 0.1 µM
[28] = second compound 3.16 µM, first compound 0.316 µM
[29] = second compound 3.16 µM, first compound 1 µM
[30] = second compound 10 µM, first compound 0.00316 µM
[31] = second compound 10 µM, first compound 0.01 µM
[32] = second compound 10 µM, first compound 0.0316 µM
[33] = second compound 10 µM, first compound 0.1 µM
[34] = second compound 10 µM, first compound 0.316 µM
[35] = second compound 10 µM, first compound 1 µM
[36] = second compound 0.1 µM, first compound 3.16 µM
[37] = second compound 0.1 µM, first compound 10 µM
[38] = second compound 0.316 µM, first compound 3.16 µM
[39] = second compound 0.316 µM, first compound 10 µM
[40] = second compound 1 µM, first compound 3.16 µM
[41] = second compound 1 µM, first compound 10 µM
[42] = second compound 3.16 µM, first compound 3.16 µM
[43] = second compound 3.16 µM, first compound 10 µM
[44] = second compound 10 µM, first compound 3.16 µM
[45] = second compound 10 µM, first compound 10 µM
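Further: luminescence taken as a proxy for viable cell amount.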
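Wherever viability, T/C is given: percent of DMSO vehicle control where 100% means growth equal to vehicle.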

SMILES | pIC50 [1] | pIC50 [2] | pIC50 [3] | pIC50 [4] | pIC50 [5] | viability, T/C [8] [%] | viability, T/C [9] [%] | viability, T/C [10] [%] | viability, T/C [11] [%] | viability, T/C [14] [%] | viability, T/C [15] [%] | viability, T/C [16] [%] | viability, T/C [17] [%] | viability, T/C [20] [%] | viability, T/C [21] [%] | viability, T/C [22] [%] | viability, T/C [23] [%] | viability, T/C [26] [%] | viability, T/C [27] [%] | viability, T/C [28] [%] | other results
CC1COCCN1c1cc(-c2ccnn2C)c2ccnc(-c3ccn[nH]3)c2n1 (stereo not drawn) + Cc1cncc(-c2nc(NCCc3c[nH]c4ccccc34)c3ncn(C(C)C)c3n2)c1 | 6.21 | 6.55 | 6.33 | > 8.50 | > 8.50 | 112 | 82.3 | 64.6 | 40.8 | 102 | 76.4 | 47.5 | 34.3 | 111 | 83.2 | 58.9 | 35.5 | 33.2 | 27.5 | 18.7 | viability, T/C [6]: 104%; viability, T/C [7]: 103%; viability, T/C [12]: 111%; viability, T/C [13]: 120%; viability, T/C [18]: 119%; viability, T/C [19]: 112%; viability, T/C [24]: 38%; viability, T/C [25]: 34.6%; viability, T/C [29]: 15.7%; viability, T/C [30]: 1.11%; viability, T/C [31]: 1.21%; viability, T/C [32]: 1.42%; viability, T/C [33]: 1.71%; viability, T/C [34]: 0.8%; viability, T/C [35]: 2.39%
CC1COCCN1c1cc(C2(S(C)(=N)=O)CC2)nc(-c2ccnc3[nH]ccc23)n1 (stereo not drawn) + Cc1ccccc1N=Nc1ccc(NC(=O)c2ccnn2C)c(C)c1 | < 5.00 | < 5.00 | < 5.00 | < 5.00 | < 5.00 | 108 | 101 | 97 | 99.5 | 100 | 92.7 | 105 | 98 | 99.2 | 92.9 | 93.7 | 96.6 | 81.9 | 88.5 | 107 | viability, T/C [36]: 94.8%; viability, T/C [37]: 67.6%; viability, T/C [38]: 95%; viability, T/C [39]: 64.1%; viability, T/C [40]: 82.1%; viability, T/C [41]: 67.4%; viability, T/C [29]: 87.5%; viability, T/C [42]: 68.6%; viability, T/C [43]: 56.1%; viability, T/C [32]: 91.4%; viability, T/C [33]: 77.2%; viability, T/C [34]: 95.4%; viability, T/C [35]: 91.9%; viability, T/C [44]: 79.7%; viability, T/C [45]: 65.2%
CC1(C)CCC(CN2CCN(c3ccc(C(=O)NS(=O)(=O)c4ccc(NCC5CCOCC5)c([N+](=O)[O-])c4)c(Oc4cnc5[nH]ccc5c4)c3)CC2)=C(c2ccc(Cl)cc2)C1 |  |  |  |  |  |  |  |  |  |  |  |  |  |  |  |  |  |  |  |  | viability, T/C (compound 0.0316 µM): 100% and 112% and 101%; viability, T/C (compound 0.1 µM): 105% and 99.6% and 110%; viability, T/C (compound 0.316 µM): 94.1% and 105% and 96.2%; viability, T/C (compound 1 µM): 98.5% and 101% and 95.5%; viability, T/C (compound 3.16 µM): 98.2% (2×) and 102%; viability, T/C (compound 10 µM): 46.4% and 19.4% and 17.5%; pIC50 (curve of compound): 5.03 and 5.19
CC1COCCN1c1cc(C2(S(C)(=N)=O)CC2)nc(-c2ccnc3[nH]ccc23)n1 (stereo not drawn) + CC(CO)NC(=O)c1cc(-c2ccc(Cl)cc2)nn(-c2cnn(C)c2)c1=O | < 5.00 | < 5.00 | < 5.00 | < 5.00 | < 5.00 | 101 | 91.6 | 89.7 | 99.3 | 92.6 | 91.7 | 93.7 | 90.2 | 97.8 | 92.8 | 88.3 | 91 | 89.9 | 89 | 95.8 | viability, T/C [36]: 79.1%; viability, T/C [37]: 63.4%; viability, T/C [38]: 86%; viability, T/C [39]: 53.1%; viability, T/C [40]: 68.8%; viability, T/C [41]: 60%; viability, T/C [29]: 82.3%; viability, T/C [42]: 79.1%; viability, T/C [43]: 59.1%; viability, T/C [32]: 76.1%; viability, T/C [33]: 95.3%; viability, T/C [34]: 73.8%; viability, T/C [35]: 83.7%; viability, T/C [44]: 59.6%; viability, T/C [45]: 51.3%
Cc1cncc(-c2nc(NCCc3c[nH]c4ccccc34)c3ncn(C(C)C)c3n2)c1 |  |  |  |  |  |  |  |  |  |  |  |  |  |  |  |  |  |  |  |  | viability, T/C (compound 10 µM): 0.88% [middle of 19 runs]
CC1COCCN1c1cc(-c2ccnn2C)c2ccnc(-c3ccn[nH]3)c2n1 (stereo not drawn) + Cc1ccccc1N=Nc1ccc(NC(=O)c2ccnn2C)c(C)c1 | 6.29 | 6.17 | 6.51 | 6.39 | 6.23 | 82.4 | 72 | 56.3 | 41.5 | 90.6 | 73.1 | 58.4 | 45.6 | 91.6 | 73.6 | 50 | 38.4 | 69.7 | 78 | 49.3 | viability, T/C [6]: 88.3%; viability, T/C [7]: 88.5%; viability, T/C [12]: 98%; viability, T/C [13]: 110%; viability, T/C [18]: 94.4%; viability, T/C [19]: 79.8%; viability, T/C [24]: 92.8%; viability, T/C [25]: 79.7%; viability, T/C [29]: 37%; viability, T/C [30]: 86.6%; viability, T/C [31]: 81.7%; viability, T/C [32]: 97.2%; viability, T/C [33]: 72.9%; viability, T/C [34]: 59.8%; viability, T/C [35]: 42.8%

Source: PubChem BioAssay AID1919013 (Molecular Pharmacology Branch, DTP, NCI, 2023)
